Measurements from patent US20250380697A1, “ISOXAZOLINE DERIVATIVE COMPOUND AND INSECTICIDAL COMPOSITION COMPRISING SAME” (KYUNG NONG CORPORATION, priority 2022, published 2025).
Like-named read-outs stand apart in the source and are kept apart here.

What was measured:
Format in all cases: in vivo
[1] = test system: Frankliniella occidentalis; experiment: Pesticidal activity against Frankliniella occidentalis, spray method; settings: read-out: mortality rate against Frankliniella occidentalis
Text: A water-soaked filter paper (9.0 cm in diameter) was placed in an insect breeding dish (Lab Guide®) with a diameter of 9.0 cm and a height of 4.0 cm, and then parafilm (width 4.0 cm×height 4.0 cm) was placed thereon. Before treating with a pesticide composition, 10 adult Frankliniella occidentalis were inoculated per petri dish using a No. 4 brush. In this case, Frankliniella occidentalis adults used were those purchased from the Bio Utilization Institute (Andong, Korea). Then, each of the pesticide compositions prepared in Examples (a diluted solution in which each of the compounds of Synthesis Examples (concentration: 100 ppm) was diluted; the solvent=distilled water+acetone 50,000 mg/L+Triton X-100 100 mg/L) was loaded into a 100 mL small sprayer, and sprayed 10-12 times at a distance of 30 cm and a height of 50 cm, and one cotyledons of soybean, which is a host plant, were added one at a time. Then, the Frankliniella occidentalis adults were stored under the conditions of 16 hours of light and 8 hours of darkness, 25±1° C., and relative humidity of 50-60%, and the number of live Frankliniella occidentalis adults was counted 48 hours after the inoculation. Thereafter, the larvae mortality rate was calculated in the same manner as in Test Example 1 above.

Plutella xylostella = experiment: Pesticidal activity against Plutella xylostella, leaf-dipping method; settings: read-out: larvae mortality rate against Plutella xylostella
Protocol: Cabbage (Daiya) leaves were cut into pieces with a diameter of 5.8 cm, dipped in each of the pesticide compositions prepared in Examples (a 5% acetone solution in which each of the compounds of Synthesis Examples (concentration: 100 ppm) was diluted) for 30 seconds, and sufficiently shade-dried. Then, the shade-dried cabbage leaves were placed in a petri dish (8.8 cm in diameter) covered with a filter paper and repeatedly inoculated 3 times with third instar larvae of Plutella xylostella, 10 larvae per inoculation. In particular, Plutella xylostella larvae used were those which were collected in a place near Gyeongju (Korea) in 2000 and bred in a breeding room for multiple generations. Then, the Plutella xylostella larvae were stored under the conditions of 16 hours of light and 8 hours of dark, 25±1° C., and relative humidity of 50-60%, and the number of live Plutella xylostella larvae was counted 48 hours after the inoculation. Thereafter, the larvae mortality rate was calculated by correcting the density after treatment based on the density before treatment, as shown in Equation 1 and Equation 2 below, and converting the same into the corrected mortality rate for untreated (Reference: A method of computing the effectiveness of an insecticide. J. Econ. Entomol. 18:265˜267. Abbott, 1925).

Spodoptera litura = experiment: Pesticidal activity against Spodoptera litura, leaf-dipping method; settings: read-out: mortality rate against Spodoptera litura
Protocol: Cabbage (Daiya) leaves were cut into pieces with a diameter of 5.8 cm, dipped in each of the pesticide compositions prepared in Examples (a 5% acetone solution in which each of the compounds of Synthesis Examples (concentration: 100 ppm) was diluted) for 30 seconds, and sufficiently shade-dried. Then, the shade-dried cabbage leaves were placed in a petri dish (8.8 cm in diameter) covered with a filter paper and repeatedly inoculated 3 times with the second instar larvae of Spodoptera litura, 10 larvae per inoculation. In this case, Spodoptera litura larvae used were those which were purchased from the Bio Utilization Institute (Andong, Korea). Then, the Spodoptera litura larvae were stored under the conditions of 16 hours of light and 8 hours of dark, 25±1° C., and relative humidity of 50-60%, and the number of live Spodoptera litura larvae was counted 48 hours after the inoculation. Thereafter, the larvae mortality rate was calculated in the same manner as in Test Example 1 above.

Measured: mortality at 100 ppm

Cc1cc(C2=NOC(c3cccc(C#N)c3)(C(F)(F)F)C2)ccc1C(=O)NC(=O)C1CC1 (stereo not drawn) [Synthesis Example 4]
≥ 80%: [1]; 100 ppm, spray, adults, 48 hours after inoculation | Plutella xylostella; 100 ppm, leaf-dipping, third instar larvae, 48 hours after inoculation | Spodoptera litura; 100 ppm, leaf-dipping, second instar larvae, 48 hours after inoculation

Cc1cc(C2=NOC(c3cc(C(F)(F)F)cc(C(F)(F)F)c3)(C(F)(F)F)C2)ccc1C(=O)NC(=O)C1CC1 (stereo not drawn) [Synthesis Example 5]
≥ 80%: [1]; 48 h | Plutella xylostella; 48 h | Spodoptera litura; 48 h

O=C(NC(=O)C1CC1)c1ccc(C2=NOC(c3cc(Cl)cc(C(F)(F)F)c3)(C(F)(F)F)C2)c2ccccc12 (stereo not drawn) [Synthesis Example 6]
≥ 80%: [1]; 48 h | Plutella xylostella; 48 h | Spodoptera litura; 48 h

O=C(NC(=O)C1CC1)c1ccc(C2=NOC(c3cc(Cl)cc(C(F)(F)F)c3)(C(F)(F)F)C2)cc1Br (stereo not drawn) [Synthesis Example 8]
≥ 80%: [1]; 48 h | Plutella xylostella; 48 h | Spodoptera litura; 48 h

O=C(NC(=O)C1CC1)c1ccc(C2=NOC(c3cc(Cl)cc(C(F)(F)F)c3)(C(F)(F)F)C2)cc1Cl (stereo not drawn) [Synthesis Example 9]
≥ 80%: [1]; 48 h | Plutella xylostella; 48 h | Spodoptera litura; 48 h

O=C(NC(=O)C1CC1)c1ccc(C2=NOC(c3cc(Cl)cc(C(F)(F)F)c3)(C(F)(F)F)C2)cn1 (stereo not drawn) [Synthesis Example 10]
≥ 80%: [1]; 48 h | Plutella xylostella; 48 h | Spodoptera litura; 48 h

Cc1cc(C2=NOC(c3cc(Cl)cc(C(F)(F)F)c3)(C(F)(F)F)C2)ccc1C(=O)N(C)C(=O)C1CC1 (stereo not drawn) [Synthesis Example 11]
≥ 80%: [1]; 48 h | Plutella xylostella; 48 h | Spodoptera litura; 48 h

CN(C(=O)c1ccc(C2=NOC(c3cc(Cl)cc(C(F)(F)F)c3)(C(F)(F)F)C2)c2ccccc12)C(=O)C1CC1 (stereo not drawn) [Synthesis Example 12]
≥ 80%: [1]; 48 h | Plutella xylostella; 48 h | Spodoptera litura; 48 h

Cc1cc(C2=NOC(c3cc(Cl)cc(Cl)c3)(C(F)(F)F)C2)ccc1C(=O)N(C)C(=O)C1CC1 (stereo not drawn) [Synthesis Example 13]
≥ 80%: [1]; 48 h | Plutella xylostella; 48 h | Spodoptera litura; 48 h

CN(C(=O)c1ccc(C2=NOC(c3cc(Cl)cc(Cl)c3)(C(F)(F)F)C2)c2ccccc12)C(=O)C1CC1 (stereo not drawn) [Synthesis Example 14]
≥ 80%: [1]; 48 h | Plutella xylostella; 48 h | Spodoptera litura; 48 h

O=C(c1ccc(C2=NOC(c3cc(Cl)cc(C(F)(F)F)c3)(C(F)(F)F)C2)c2ccccc12)N(CCF)C(=O)C1CC1 (stereo not drawn) [Synthesis Example 17]
≥ 80%: [1]; 48 h | Plutella xylostella; 48 h | Spodoptera litura; 48 h

Cc1ccc(C(=O)N(C)C(=O)c2ccc(C3=NOC(c4cc(Cl)cc(C(F)(F)F)c4)(C(F)(F)F)C3)cc2C)o1 (stereo not drawn) [Synthesis Example 18]
≥ 80%: [1]; 48 h | Plutella xylostella; 48 h | Spodoptera litura; 48 h

CCN(C(=O)c1ccc(C2=NOC(c3cc(Cl)cc(C(F)(F)F)c3)(C(F)(F)F)C2)cc1C)C(=O)C1CC1 (stereo not drawn) [Synthesis Example 19]
≥ 80%: [1]; 48 h | Plutella xylostella; 48 h | Spodoptera litura; 48 h

Cc1cc(C2=NOC(c3cc(Cl)cc(C(F)(F)F)c3)(C(F)(F)F)C2)ccc1C(=O)N(CC(F)(F)F)C(=O)C1CC1 (stereo not drawn) [Synthesis Example 20]
≥ 80%: [1]; 48 h | Plutella xylostella; 48 h | Spodoptera litura; 48 h

Cc1cc(C2=NOC(c3cc(Cl)cc(C(F)(F)F)c3)(C(F)(F)F)C2)ccc1C(=O)N(CC1CC1)C(=O)C1CC1 (stereo not drawn) [Synthesis Example 21]
≥ 80%: [1]; 48 h | Plutella xylostella; 48 h | Spodoptera litura; 48 h

Cc1cc(C2=NOC(c3cc(Cl)cc(C(F)(F)F)c3)(C(F)(F)F)C2)ccc1C(=O)N(C(=O)C1CC1)C(=O)C1CC1 (stereo not drawn) [Synthesis Example 22]
≥ 80%: [1]; 48 h | Plutella xylostella; 48 h | Spodoptera litura; 48 h

Cc1cc(C2=NOC(c3cc(Cl)cc(C(F)(F)F)c3)(C(F)(F)F)C2)ccc1C(=O)N(C(=O)C1CC1)C1CC1 (stereo not drawn) [Synthesis Example 23]
≥ 80%: [1]; 48 h | Plutella xylostella; 48 h | Spodoptera litura; 48 h

Cc1cc(C2=NOC(c3cc(Cl)cc(Cl)c3)(C(F)(F)F)C2)ccc1C(=O)NC(=O)C1(C)CC1 (stereo not drawn) [Synthesis Example 24]
≥ 80%: [1]; 48 h | Plutella xylostella; 48 h | Spodoptera litura; 48 h

Cc1cc(C2=NOC(c3cc(Cl)cc(C(F)(F)F)c3)(C(F)(F)F)C2)ccc1C(=O)NC(=O)C1(C)CC1 (stereo not drawn) [Synthesis Example 25]
≥ 80%: [1]; 48 h | Plutella xylostella; 48 h | Spodoptera litura; 48 h

Cc1cc(C2=NOC(c3cc(Cl)cc(Cl)c3)(C(F)(F)F)C2)ccc1C(=O)NC(=O)C1(C#N)CC1 (stereo not drawn) [Synthesis Example 26]
≥ 80%: [1]; 48 h | Plutella xylostella; 48 h | Spodoptera litura; 48 h

Cc1cc(C2=NOC(c3cc(Cl)cc(C(F)(F)F)c3)(C(F)(F)F)C2)ccc1C(=O)NC(=O)C1(C#N)CC1 (stereo not drawn) [Synthesis Example 27]
≥ 80%: [1]; 48 h | Plutella xylostella; 48 h | Spodoptera litura; 48 h

Cc1cc(C2=NOC(c3cc(Cl)cc(Cl)c3)(C(F)(F)F)C2)ccc1C(=O)NC(=O)C1(C(F)(F)F)CC1 (stereo not drawn) [Synthesis Example 28]
≥ 80%: [1]; 48 h | Plutella xylostella; 48 h | Spodoptera litura; 48 h

Cc1cc(C2=NOC(c3cc(Cl)cc(C(F)(F)F)c3)(C(F)(F)F)C2)ccc1C(=O)NC(=O)C1(C(F)(F)F)CC1 (stereo not drawn) [Synthesis Example 29]
≥ 80%: [1]; 48 h | Plutella xylostella; 48 h | Spodoptera litura; 48 h

Cc1cc(C2=NOC(c3cc(Cl)cc(Cl)c3)(C(F)(F)F)C2)ccc1C(=O)NC(=O)C1(C)CC1(F)F (stereo not drawn) [Synthesis Example 30]
≥ 80%: [1]; 48 h | Plutella xylostella; 48 h | Spodoptera litura; 48 h

Cc1cc(C2=NOC(c3cc(Cl)cc(C(F)(F)F)c3)(C(F)(F)F)C2)ccc1C(=O)NC(=O)C1(C)CC1(F)F (stereo not drawn) [Synthesis Example 31]
≥ 80%: [1]; 48 h | Plutella xylostella; 48 h | Spodoptera litura; 48 h

Cc1cc(C2=NOC(c3cc(Cl)cc(Cl)c3)(C(F)(F)F)C2)ccc1C(=O)NC(=O)C1CCC1 (stereo not drawn) [Synthesis Example 32]
≥ 80%: [1]; 48 h | Plutella xylostella; 48 h | Spodoptera litura; 48 h

Cc1cc(C2=NOC(c3cc(Cl)cc(C(F)(F)F)c3)(C(F)(F)F)C2)ccc1C(=O)NC(=O)C1CCC1 (stereo not drawn) [Synthesis Example 33]
≥ 80%: [1]; 48 h | Plutella xylostella; 48 h | Spodoptera litura; 48 h

Cc1cc(C2=NOC(c3cc(Cl)cc(Cl)c3)(C(F)(F)F)C2)ccc1C(=O)NC(=O)c1ccccc1 (stereo not drawn) [Synthesis Example 37]
≥ 80%: [1]; 48 h | Plutella xylostella; 48 h | Spodoptera litura; 48 h
